# Patent publication US4349378A, “Compounds useful as pesticides” (FBC Limited, priority 1978, dated 1982)
# Key:
# [1] = test system: Wheat; assay: (II) surface spray, growth regulatory or herbicidal effects; assay type: in vivo, Triticum aestivum; details: 21 days, 100=complete suppression
# Source text: (§1) (II) An aqueous suspension together with 1000 ppm of the wetting agent Lissapol NX. The surfaces of an additional set of pans with seeds already sown were then sprayed with 2.8 or 1.4 kg/ha in 450 liters/hectare, and the pans kept in the controlled environment room for 21 days.
# (§2) The plants were then visually assessed for any growth regulatory or herbicidal effects. All differences from an untreated control were scored on a scale from 0-100, where 0 signifies no effect and 100 signifies complete suppression.
# (§3) The results are shown in the following table where I stands for soil incorporation and II for surface spray.
# [2] = test system: Rice; assay: as above; assay type: in vivo, Oryza sativa; details: 21 days, 100=complete suppression
# Source text: as §1, §2, §3
# [3] = test system: Cotton; assay: as above; assay type: in vivo, Gossypium sp.; details: 21 days, 100=complete suppression
# Source text: as §1, §2, §3
# [4] = test system: Tomato; assay: as above; assay type: in vivo, Lycopersicon esculentum; details: 21 days, 100=complete suppression
# Source text: as §1, §2, §3
# [5] = test system: Barley; assay: as above; assay type: in vivo, Hordeum vulgare; details: 21 days, 100=complete suppression
# Source text: as §1, §2, §3
# [6] = test system: Barnyard Grass; assay: as above; assay type: in vivo, Echinochloa crus-galli; details: II surface spray 1.4 kg/ha (line 3.25 ppm), 21 days, 100=complete suppression
# Source text: as §1, §2, §3
# [7] = test system: Carrot; assay: as above; assay type: in vivo, Daucus carota; details: 21 days, 100=complete suppression
# Source text: as §1, §2, §3
# [8] = test system: Xanthomonas malvacearum; assay: bacteriostatic test in dextrose nutrient broth; assay type: cell-based; details: 1,000 and 200 ppm weight/volume; 8 days at 25° C.
# Experimental: A 1% suspension/solution of the product of Example 157 in polyethylene glycol (Carbowax 400) was added to a dextrose nutrient broth to give a concentration of 1,000 parts per million (ppm) weight/volume of medium. Dilution in test tubes was then carried out to give a concentration of 200 ppm weight/volume of medium. To 8 ml quantities of broth was added 0.2 ml of a dense broth culture of the bacterium causing black arm of cotton, Xanthomonas malvacearum. After 8 days incubation at 25° C., all the broth specimens were examined for signs of bacterial growth.
# [9] = test system: acetylcholinesterase; assay: standard test indicative of insecticidal activity, inhibition of acetylcholinesterase; assay type: biochemical; details: 100 micromolar
# [10] = test system: Chickweed; assay: (I) soil incorporation, growth regulatory or herbicidal effects; assay type: in vivo, Stellaria media; details: I soil incorporation 6.5 ppm, 21 days, 100=complete suppression
# Source text: (§4) (I) an attaclay/sand dust and incorporated in John Innes I potting compost at a rate equivalent to 6.5 and 3.25 parts per million weight/volume of active ingredient to soil and placed in anodised aluminium pans, 19 cm long×9.5 cm wide×5.0 cm high. This is approximately equivalent to a surface application of 2.8 and 1.4 kg active ingredient per hectare cultivated to a depth of 5 cm. Seeds of the species listed below were sown in the treated soil, one species per pan, watered and placed in a controlled environment room (22° C.; 65-85% relative humidity and 14 hours artificial illumination at 17000 lux) for 21 days.
# as §2, §3
# [11] = test system: Fathen; assay: as above; assay type: in vivo, Chenopodium album; details: I soil incorporation 6.5 ppm, 21 days, 100=complete suppression
# Source text: as §4, §2, §3
# [12] = II surface spray 1.4 kg/ha (line 3.25 ppm)
# [13] = II surface spray 2.8 kg/ha (line 6.5 ppm)
Structure (SMILES),"growth regulatory or herbicidal effect score [1, 12]","growth regulatory or herbicidal effect score [1, 13]","growth regulatory or herbicidal effect score [2, 12]","growth regulatory or herbicidal effect score [2, 13]","growth regulatory or herbicidal effect score [3, 12]","growth regulatory or herbicidal effect score [3, 13]","growth regulatory or herbicidal effect score [4, 12]","growth regulatory or herbicidal effect score [4, 13]","growth regulatory or herbicidal effect score [5, 12]","growth regulatory or herbicidal effect score [5, 13]",growth regulatory or herbicidal effect score [6],"growth regulatory or herbicidal effect score [7, 12]","growth regulatory or herbicidal effect score [7, 13]",bacterial growth [8],inhibition of acetylcholinesterase [9] [%],growth regulatory or herbicidal effect score [10],growth regulatory or herbicidal effect score [11]
CCS(=O)(=O)N(CC(N)=S)c1ccc(Cl)c(Cl)c1 [Example 156],0,0,0,0,0,0,0,0,0,0,,,,,,,
CCS(=O)(=O)N(CC#N)c1ccc(Cl)c(Cl)c1 [Example 137],0,0,0,0,0,0,0,0,0,0,90,0,0,,,,
CS(=O)(=O)N(CC(N)=S)c1cccc(Cl)c1Cl [Example 157],,,,,,,,,,,,,,No growth,,,
"CNC(=O)ON=C(C)CN(c1c(C)cccc1C)S(C)(=O)=O [Example 248, N-[2-(methylcarbamoyloxyimino)propyl]-2',6'-dimethylmethanesulphonanilide]",,,,,,,,,,,,,,,30,,
CCOC(=O)C(CC)N(c1c(C)cccc1C)S(C)(=O)=O (centres unmarked) [Example 95],,,,,,,,,,,,,,,,90,100
Cc1ccc(N(CC#N)S(C)(=O)=O)cc1Cl [Example 131],0,0,0,0,0,0,0,0,0,0,,0,0,,,,
Cc1ccc(N(CC(N)=S)S(C)(=O)=O)cc1Cl [Example 150],0,0,0,0,0,0,0,0,0,0,,,,,,,
"CS(=O)(=O)N(CC(N)=S)c1ccc(Cl)c(Cl)c1 [Example 85, N-(thiocarbamoylmethyl)-3,4-dichloromethanesulphonanilide]",0,0,0,0,0,0,0,0,0,0,90,0,0,,,,
